Source: patent publication US20180105838A1, “PROCESS FOR DE NOVO MICROBIAL SYNTHESIS OF TERPENES” (BASF SE, priority 2015, published 2018)

What was measured:
[1] = test system: Methylobacterium extorquens AM1; format: cell-based
Procedure: (§1) 1.6 Dodecane and α-Humulene Tolerance of M. extorquens AM1
M. extorquens AM1 precultures were cultured in test tubes with 5 ml methanol minimal medium (MM) for 48 h. The tolerance of M. extorquens AM1 towards 20% (v/v) dodecane was studied by growth comparison ( OD600) of cultures containing 15 ml MM and cultures with 12 ml MM and 3 ml dodecane. The cultures for the growth comparison with and without dodecane were inoculated from one preculture.

[2] = test system: Methylobacterium extorquens AM1; assay: α-humulene tolerance of M. extorquens AM1 (growth rate comparison, OD600); format: cell-based; details: FIG. 3
Procedure: as §1
The α-humulene tolerance was tested in two ways: tolerance towards α-humulene added directly to the aqueous phase and tolerance towards α-humulene dissolved in the organic dodecane layer. For the first experiment, pure α-humulene dissolved in ethanol was added to 100 ml baffled shaker flasks containing 15 ml MM with end concentrations of α-humulene of 1000, 500, 250, 100, 50, 25, 10 and 5 mg/L. Corresponding quantities of ethanol were added to the MM as negative controls. The flasks with the different α-humulene concentrations and the corresponding negative controls were inoculated with a preculture without α-humulene to an OD600 of 0.1. The OD600 was recorded over 30 h.
For the second said experiment, pure α-humulene was dissolved in dodecane and solutions with 1000, 500, 100, 50 and 10 mg/L α-humulene prepared. Two cultures each with 12 ml MM and 3 ml dodecane for each α-humulene concentration were inoculated to an OD600 of 0.1 from a preculture of M. extorquens AM1 without dodecane. Cultures with dodecane without α-humulene were used as negative controls. OD600 was measured over 30 h.
Terpenes often have toxic effects on bacteria. The toxicity of α-humulene to M. extorquens was studied by growth analyses in the presence of different α-humulene concentrations. […]

Structure (SMILES)	toxic effects or influence on growth [1]	growth-inhibiting effect (growth rate μ compared with μmax without α-humulene) ([2]; α-humulene dissolved directly in the aqueous phase, even at concentrations of 1 g/l)	influence on growth (growth rate μ compared with μmax without α-humulene) ([2]; α-humulene dissolved in the dodecane phase as second organic phase)
CCCCCCCCCCCC [dodecane]	without any toxic effects or influence on growth being observable		
C/C1=C\CC/C(C)=C/CC(C)(C)/C=C/C1 [α-humulene]		only minimal growth-inhibiting effects	slightly lesser influence than in the aqueous phase
